Values quoted from earlier work as cited in patent US9215889B2, “Steviol glycoside” (MORITA KAGAKU KOGYO CO., LTD., priority 2008, dated 2015).

Settings: for taste quality (in words): background comparison of ST and RA

SMILES	taste quality (in words)	degree of sweetness (relative to sucrose)
C=C1C[C@@]23CC[C@H]4[C@@](C)(CCC[C@@]4(C)C(=O)O[C@@H]4O[C@H](CO)[C@@H](O)[C@H](O)[C@H]4O)[C@@H]2CC[C@]1(O[C@@H]1O[C@H](CO)[C@@H](O)[C@H](O)[C@H]1O[C@@H]1O[C@H](CO)[C@@H](O)[C@H](O)[C@H]1O)C3 [ST, Stevioside]	an unpleasant taste of bitterness remains in the mouth	300 times that of sucrose
C=C1C[C@@]23CC[C@H]4[C@@](C)(CCC[C@@]4(C)C(=O)O[C@@H]4O[C@H](CO)[C@@H](O)[C@H](O)[C@H]4O)[C@@H]2CC[C@]1(O[C@@H]1O[C@H](CO)[C@@H](O)[C@H](O[C@@H]2O[C@H](CO)[C@@H](O)[C@H](O)[C@H]2O)[C@H]1O[C@@H]1O[C@H](CO)[C@@H](O)[C@H](O)[C@H]1O)C3 [RA, Rebaudioside A]	good quality of sweetness	–
